Assay results: patent US20170015626A1, “TWO-PHOTON-ABSORBING COMPOUND” (OTSUKA ELECTRONICS CO., LTD., priority 2014, published 2017)

Tested on: Hek293 cells
Test: Fluorescence staining experiment on cells, observed by two-photon excitation fluorescence microscopy
Type: cell-based, Human
Conditions: for emission of a red fluorescence from the stained cells by two-photon excitation fluorescence microscopy: Hek293 cells stained at 1 μmol dm^−3 for 12 hours, band pass filter central wavelength 650 nm; for fluorescence staining of HeK293 cells: final concentration 1 μmol dm^−3, final DMSO 0.1% (v/v), incubated for 12 hours
Experimental: Human embryonic kidney cells, namely, Hek293 cells were used as model cells for staining. The Hek293 cells were cultured in Dulbecco's Modified Eagle's Medium (DMEM) containing 10% (v/v) fetal bovine serum and 1% (v/v) […] and streptomycin under conditions of 37° C. and 5% CO2.
For preparation of microscopic observation, Hek293 cells were subcultured on a 35-mm glass-based dish, to result in a cell density of 1×10^5 cells/dish. 24 hours after the subculture, adhesion of the cells to the dish was confirmed by microscopic observation. The medium was removed from the dish, and the resulting cells were then washed with a phosphate buffered saline (PBS) twice. 2 mL of DMEM medium not containing phenol red (final concentration of PY: 1 μmol dm^−3, final DMSO concentration: 0.1% (v/v)), to which 2 μL of dimethyl sulfoxide (DMSO) solution of the 1×10^−3 mol/dm^−3 naphthalene derivative (I), anthracene derivative (II) or pyrene derivative (III) had been added, was placed in the dish, and it was then incubated for 12 hours for staining. Immediately before microscopic observation, the medium containing the pigment was removed from the dish, and PBS was then used to wash the cells twice. After that, 2 mL of the DMEM medium not containing phenol red was added to the dish.
A two-photon excitation fluorescence microscope was produced using Optical Block (Hamamatsu Photonics K. K.). As a light source, Femtosecond titanium-sapphire laser (Mira900, Coherent) was used. A mirror unit equipped with a Galvano scanner for scanning a focal point, a short-pass dichroic mirror (FF750-SDi02-25×36, Semrock) having a cutoff wavelength at 750 nm, and a band pass filter (FF01-650/60-25, Semrock) having a central wavelength at 650 nm was inserted into the optical system. For detection of fluorescence, a photomultiplier tube (R928, Hamamatsu Photonics K. K.) was used, and DC was detected at an applied voltage of 1000 V, through a preamplifier (5 MHz)-equipped socket. USB-6251 BNC was used as DAQ, and Lab VIEW2011 (National Instruments) was used as a platform of the control program. As a sample stage, KZGO620-G was used, and as objective lens, infinity corrected objective lens with a magnification of 40 and NA of 1.15 was used.

Row | SMILES | emission of a red fluorescence from the stained cells by two-photon excitation fluorescence microscopy | fluorescence staining of HeK293 cells
1 | C[n+]1ccc(/C=C/c2ccc3cc4cc(/C=C/c5cc[n+](C)cc5)ccc4cc3c2)cc1 [anthracene derivative (II)] | emission of a red fluorescence from the aforementioned cells was observed | could achieve the fluorescence staining of HeK293 cells
2 | C[n+]1ccc(/C=C/c2ccc3cc(/C=C/c4cc[n+](C)cc4)ccc3c2)cc1 [naphthalene derivative (I)] | emission of a red fluorescence from the aforementioned cells was observed | could achieve the fluorescence staining of HeK293 cells
3 | CCCCc1cc(C=Cc2cc[n+](C)cc2)c2ccc3c(CCCC)cc(C=Cc4cc[n+](C)cc4)c4ccc1c2c43.[I-].[I-] [pyrene derivative (III)] | emission of a red fluorescence from the aforementioned cells was observed | could achieve the fluorescence staining of HeK293 cells
